{"source": "patent US20090169494A1", "about": "“Sunscreen cosmetic composition” (Shiseido Company Ltd, priority 2005, published 2009)", "experiment": "Solubility of the triazine UV absorbent in oil components A-E", "assay_type": "physicochemical", "settings": "dissolved at 80° C., three days stirring at 0° C., supernatant absorbance at 342.8 nm; FIG. 1", "description": "Solubility of 2,4-bis[[4-(2-ethylhexyloxy)-2-hydroxy]phenyl]-6-(4-methoxyphenyl)-1,3,5-triazine in the following oil components A-E was measured.\n2,4-bis[[4-(2-ethylhexyloxy)-2-hydroxy]phenyl]-6-(4-methoxyphenyl)-1,3,5-triazine is heated and dissolved at 80° C. in each of the aforementioned oil components A-E. After the temperature naturally cools down to room temperature, a small amount of 2,4-bis[[4-(2-ethylhexyloxy)-2-hydroxy]phenyl]-6-(4-methoxyphenyl)-1,3,5-triazine in powder form is added, followed by three days of stirring and cooling (stirrer) at 0° C. After this, the supernatant solution is quickly sampled before the temperature rises and 30 mg (actual measurement) of it is diluted to 100 mL of ethyl acetate. The absorbance at 342.8 nm of the obtained diluted solution is measured. The obtained absorbance is plotted against a previously prepared calibration curve to determine the solubility."}
{"molecule": "CCCCC(CC)COc1ccc(-n2nc3ccccc3n2)c(O)c1", "note": "(centres unmarked) [Oil component D, 2-[4-(2-ethylhexyloxy)-2-hydroxyphenyl]-2H-benzotriazole]", "values": [{"measurement": "Solubility of 2,4-bis[[4-(2-ethylhexyloxy)-2-hydroxy]phenyl]-6-(4-methoxyphenyl)-1,3,5-triazine in the oil component", "value": "particularly good"}]}
{"molecule": "CC(C)COc1ccc(-n2nc3ccccc3n2)c(O)c1", "note": "[Oil component E, 2-(2-hydroxy-4-isobutoxyphenyl)-2H-benzotriazole]", "values": [{"measurement": "Solubility of 2,4-bis[[4-(2-ethylhexyloxy)-2-hydroxy]phenyl]-6-(4-methoxyphenyl)-1,3,5-triazine in the oil component", "value": "particularly good"}]}
